Laboratory results: ChEMBL document CHEMBL1201862, “PubChem BioAssay data set” (2004)
Structures can show the parent of a compound that is named as a salt.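 Assay format: 96-well plates, 48-hour exposure. GI50 marks 50% less growth.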 Calls of active or inactive are those of the source. No stated cut-off is given here; in the data, active = GI50 up to about 1.1 µM and inactive = higher.

Key:
Experiment in all cases: growth of human tumour cells (NCI), 48 h
A549 = tested on: A549
CCRF-CEM = tested on: CCRF-CEM
HOP-62 = tested on: HOP-62
Hs-578T = tested on: Hs-578T
MDA-N = tested on: MDA-N
MOLT-4 = tested on: MOLT-4
Malme-3M = tested on: Malme-3M
NCI-H23 = tested on: NCI-H23
NCI-H460 = tested on: NCI-H460
NCI-H522 = tested on: NCI-H522
OVCAR-3 = tested on: OVCAR-3
OVCAR-8 = tested on: OVCAR-8
SF-295 = tested on: SF-295
SF-539 = tested on: SF-539
SK-MEL-5 = tested on: SK-MEL-5
SK-OV-3 = tested on: SK-OV-3
SR = tested on: SR
U-251 = tested on: U-251
UACC-62 = tested on: UACC-62
HCC 2998 = tested on: HCC 2998

Compound	GI50 (A549)	GI50 (CCRF-CEM)	GI50 (HOP-62)	GI50 (Hs-578T)	GI50 (MDA-N)	GI50 (MOLT-4)	GI50 (Malme-3M)	GI50 (NCI-H23)	GI50 (NCI-H460)	GI50 (NCI-H522)	GI50 (OVCAR-3)	GI50 (OVCAR-8)	GI50 (SF-295)	GI50 (SF-539)	GI50 (SK-MEL-5)	GI50 (SK-OV-3)	GI50 (SR)	GI50 (U-251)	GI50 (UACC-62)	GI50 (HCC 2998)
NCCN1C(=O)c2ccccc2C1(O)c1ccc(Cl)cc1 (stereo not drawn)	23.9 µM (inactive)	25.4 µM (inactive)	24.2 µM (inactive)	16.2 µM (inactive)	18.2 µM (inactive)	17.3 µM (inactive)	14.1 µM (inactive)	36.8 µM (inactive)	16.4 µM (inactive)	14.2 µM (inactive)	23.6 µM (inactive)	37.2 µM (inactive)	21.9 µM (inactive)	21.6 µM (inactive)	16.4 µM (inactive)	24.4 µM (inactive)	17.9 µM (inactive)	16.1 µM (inactive)	16.4 µM (inactive)	–
O=C1OCC2=C1C(c1ccc(Cl)cc1)c1cc3c(cc1O2)OCO3 (stereo not drawn)	4.79 µM (inactive)	2.52 µM (inactive)	3.4 µM (inactive)	4.15 µM (inactive)	0.902 µM (active)	2.74 µM (inactive)	6.41 µM (inactive)	6.9 µM (inactive)	3.34 µM (inactive)	–	3.72 µM (inactive)	9.12 µM (inactive)	2.88 µM (inactive)	2.69 µM (inactive)	3.76 µM (inactive)	2.83 µM (inactive)	3.03 µM (inactive)	–	4.36 µM (inactive)	4.1 µM (inactive)
CO/N=C1\CC(NC(=O)CNC(=O)OC(C)(C)C)c2ccsc21 (stereo not drawn)	> 100 µM (inactive)	> 100 µM (inactive)	> 100 µM (inactive)	> 100 µM (inactive)	49.2 µM (inactive)	> 100 µM (inactive)	> 100 µM (inactive)	> 100 µM (inactive)	> 100 µM (inactive)	–	> 100 µM (inactive)	> 100 µM (inactive)	> 100 µM (inactive)	> 100 µM (inactive)	81.5 µM (inactive)	> 100 µM (inactive)	> 100 µM (inactive)	> 100 µM (inactive)	> 100 µM (inactive)	> 100 µM (inactive)
CC(=O)Nc1cc2ccc(=O)oc2cc1Cl	> 100 µM (inactive)	> 100 µM (inactive)	> 100 µM (inactive)	> 100 µM (inactive)	> 100 µM (inactive)	> 100 µM (inactive)	> 100 µM (inactive)	> 100 µM (inactive)	> 100 µM (inactive)	> 100 µM (inactive)	> 100 µM (inactive)	> 100 µM (inactive)	> 100 µM (inactive)	> 100 µM (inactive)	> 100 µM (inactive)	–	> 100 µM (inactive)	> 100 µM (inactive)	> 100 µM (inactive)	> 100 µM (inactive)
O=C1COc2cccnc2N1CCCCO	> 100 µM (inactive)	> 100 µM (inactive)	> 100 µM (inactive)	> 100 µM (inactive)	> 100 µM (inactive)	> 100 µM (inactive)	–	–	> 100 µM (inactive)	> 100 µM (inactive)	> 100 µM (inactive)	–	> 100 µM (inactive)	> 100 µM (inactive)	> 100 µM (inactive)	> 100 µM (inactive)	> 100 µM (inactive)	> 100 µM (inactive)	> 100 µM (inactive)	–
CC(=O)OCC1OC(Sc2nc(-c3ccccc3)c(C#N)c(=O)n2C2OC(COC(C)=O)C(OC(C)=O)C(OC(C)=O)C2OC(C)=O)C(OC(C)=O)C(OC(C)=O)C1OC(C)=O (stereo not drawn)	> 100 µM (inactive)	–	> 100 µM (inactive)	> 100 µM (inactive)	> 100 µM (inactive)	> 100 µM (inactive)	–	> 100 µM (inactive)	> 100 µM (inactive)	> 100 µM (inactive)	> 100 µM (inactive)	> 100 µM (inactive)	> 100 µM (inactive)	> 100 µM (inactive)	> 100 µM (inactive)	> 100 µM (inactive)	> 100 µM (inactive)	> 100 µM (inactive)	> 100 µM (inactive)	8.11 µM (inactive)
Cc1cc(-c2nc3cc(F)ccc3s2)ccc1NC(=O)[C@@H](N)CCCCN	1.67 µM (inactive)	–	3.13 µM (inactive)	3.08 µM (inactive)	1.77 µM (inactive)	1.3 µM (inactive)	17.4 µM (inactive)	1.48 µM (inactive)	0.132 µM (active)	5.46 µM (inactive)	6.11 µM (inactive)	4.82 µM (inactive)	2.65 µM (inactive)	4.99 µM (inactive)	13.4 µM (inactive)	8.26 µM (inactive)	0.802 µM (active)	1.88 µM (inactive)	9.55 µM (inactive)	0.735 µM (active)
O=C1CCCC(=O)N1n1c(Cc2ccccc2)n[nH]c1=O	> 100 µM (inactive)	> 100 µM (inactive)	> 100 µM (inactive)	> 100 µM (inactive)	> 100 µM (inactive)	> 100 µM (inactive)	> 100 µM (inactive)	> 100 µM (inactive)	–	> 100 µM (inactive)	> 100 µM (inactive)	> 100 µM (inactive)	> 100 µM (inactive)	–	> 100 µM (inactive)	> 100 µM (inactive)	> 100 µM (inactive)	> 100 µM (inactive)	> 100 µM (inactive)	–
COc1ccc(/N=N/c2c(C)c(C#N)c(=S)n(C3OC(COC(C)=O)C(OC(C)=O)C(OC(C)=O)C3OC(C)=O)c2C)cc1 (stereo not drawn)	> 100 µM (inactive)	> 100 µM (inactive)	64.3 µM (inactive)	23.3 µM (inactive)	> 100 µM (inactive)	> 100 µM (inactive)	> 100 µM (inactive)	> 100 µM (inactive)	> 100 µM (inactive)	–	> 100 µM (inactive)	–	57.5 µM (inactive)	> 100 µM (inactive)	> 100 µM (inactive)	54.5 µM (inactive)	> 100 µM (inactive)	8.09 µM (inactive)	> 100 µM (inactive)	> 100 µM (inactive)
OCCN(CCO)c1ccc2c(c1)Cc1ccccc1-2	37.8 µM (inactive)	> 100 µM (inactive)	73.5 µM (inactive)	37.1 µM (inactive)	50.6 µM (inactive)	45.8 µM (inactive)	60.7 µM (inactive)	51.4 µM (inactive)	19.7 µM (inactive)	–	17 µM (inactive)	52.5 µM (inactive)	88.3 µM (inactive)	42.9 µM (inactive)	35.7 µM (inactive)	50.6 µM (inactive)	29.6 µM (inactive)	49.3 µM (inactive)	37.3 µM (inactive)	64.3 µM (inactive)
COc1ccc(-c2nc(N(C)C)c3ccccc3n2)cc1	6.1 µM (inactive)	–	16.6 µM (inactive)	13.5 µM (inactive)	14.9 µM (inactive)	3.91 µM (inactive)	16.8 µM (inactive)	16 µM (inactive)	10.8 µM (inactive)	7.96 µM (inactive)	–	11.3 µM (inactive)	14.2 µM (inactive)	20.4 µM (inactive)	13.1 µM (inactive)	15.8 µM (inactive)	10.8 µM (inactive)	20.5 µM (inactive)	12.7 µM (inactive)	6 µM (inactive)
CC1(C)CCCCCCC2CC2CCCCCC(C)(C)C1=O (stereo not drawn)	45.7 µM (inactive)	19.1 µM (inactive)	> 100 µM (inactive)	> 100 µM (inactive)	88.3 µM (inactive)	33.5 µM (inactive)	> 100 µM (inactive)	69.2 µM (inactive)	66.2 µM (inactive)	51.9 µM (inactive)	76.4 µM (inactive)	> 100 µM (inactive)	> 100 µM (inactive)	> 100 µM (inactive)	49.7 µM (inactive)	> 100 µM (inactive)	0.787 µM (active)	36.6 µM (inactive)	> 100 µM (inactive)	–
COc1cc2c(c(OC)c1OC)C(=O)[C@@H]1[C@H]2N1C(N)=O	> 100 µM (inactive)	> 100 µM (inactive)	> 100 µM (inactive)	96.2 µM (inactive)	88.5 µM (inactive)	> 100 µM (inactive)	> 100 µM (inactive)	69.2 µM (inactive)	98.2 µM (inactive)	> 100 µM (inactive)	> 100 µM (inactive)	> 100 µM (inactive)	> 100 µM (inactive)	> 100 µM (inactive)	77.4 µM (inactive)	–	> 100 µM (inactive)	47 µM (inactive)	22.1 µM (inactive)	68.4 µM (inactive)
O=C1/C(=C/c2cccc(Br)c2)Cc2ccccc21	26.8 µM (inactive)	58.7 µM (inactive)	44.6 µM (inactive)	29.4 µM (inactive)	54 µM (inactive)	62.7 µM (inactive)	> 100 µM (inactive)	25.9 µM (inactive)	30.8 µM (inactive)	96.4 µM (inactive)	41.6 µM (inactive)	78.9 µM (inactive)	39.7 µM (inactive)	41.8 µM (inactive)	–	93.1 µM (inactive)	24.5 µM (inactive)	> 100 µM (inactive)	54.3 µM (inactive)	–
Oc1ccc(C(O)C2CCCCN2)cc1O (stereo not drawn) [RIMITEROL HYDROBROMIDE]	> 100 µM (inactive)	–	> 100 µM (inactive)	> 100 µM (inactive)	> 100 µM (inactive)	–	> 100 µM (inactive)	> 100 µM (inactive)	> 100 µM (inactive)	> 100 µM (inactive)	> 100 µM (inactive)	> 100 µM (inactive)	> 100 µM (inactive)	> 100 µM (inactive)	> 100 µM (inactive)	> 100 µM (inactive)	71 µM (inactive)	> 100 µM (inactive)	> 100 µM (inactive)	–
